“And” between values parts separate entries of the source, which are not always exact repeats. Identical values can stand only once. Like-named read-outs stand apart in the source and are kept apart here.
Tests used:
c-kit1 = test: 1H-NMR of c-kit1 with ligand; assay type: binding; settings: ligand 150 μM, DNA 300 μM
Method: (§1) NMR measurements for DNA binding of triazene ligands. The procedure was followed as described previously. The ligand concentration was 150 μM, and that of the DNA (c-kit1 or 8 bp AT) was […]. The buffer used was 10 mM potassium phosphate (pH 7.5) containing 137 mM NaCl, 1 mM EDTA, and also contained 10% D2O. The sample was initially heated up to 95° C. for 5 min without the ligand and then cooled down to room temperature in 15 min. Subsequently, the sample was incubated at 4° C. for ˜12 h without the ligand (for G-quadruplex formation). Then, the ligand was added and incubated for 2 h before the NMR measurement (25° C.).
(§2) NMR of DNA/DNA analogue complexes. NMR of spectra (c-kit1 or 8 bp A T) in absence or presence of ligands were obtained following precedent. The sample solution containing c-kit1 (300 μM), D2O (10%, v/v), NaCl (137 mM), EDTA (1 mM) and potassium phosphate buffer (10 mM, pH 7.5) was heated up to 95° C. for 5 min, then cooled down to room temperature, and subsequently incubated for another 12 hours at 4° C. The DMZ analogue (150 μM) was then added and incubated for 2 hours at 4° C. The ^1H NMR spectra were recorded at 25° C., using NaOAc as an internal standard (NaOAc was in a sealed capillary tube that was inserted in the NMR tube). The ^1H NMR spectra was recorded on Bruker Avance III HD 800 MHz spectrometer with a CPQCI cryoprobe.

8 bp AT = test: 1H-NMR of duplex DNA with ligand; assay type: binding; settings: ligand 150 μM, DNA 300 μM
Method: as §1, §2

F21T = test: FRET melting assay, F21T; assay type: binding; settings: dual-labeled DNA 0.2 μM, DMZ analogues 1 μM, potassium cacodylate 60 mM pH 7.2
Method: (§3) Fluorescence resonance energy transfer (FRET) assay to determine Tm in absence and presence of ligands. Dual-labelled DNA was diluted from stock (50 μM) to 400 nM in 60 mM potassium cacodylate buffer (pH 7.2) and then annealed by heating at 85° C. for 10 min followed by cooling to room temperature in the heating block. Compounds were diluted from stock (20 mM in DMSO) to 2 μM in 60 mM cacodylate buffer (pH 7.2). 25 μL annealed DNA was added to 96-well plate followed by 25 μL diluted compounds. The sequences of labelled oligonucleotides were as follows: F21T 21-mer (5′-FAM-GGGTTAGGGTTAGGGTTAGGG-TAMRA-3′) (SEQ ID NO:11), c-kit2 26-mer (5′-FAM-CCCGGGCGGGCGCGAGGGAGGGGAGG-TAMRA-3′) (SEQ ID NO:12), k-RAS21R 21-mer (5′-FAM-AGGGCGGTGTGGGAAGAGGGA-TAMRA-3′) (SEQ ID NO:13), c-MYC 22-mer (5′-FAM-TGAGGGTGGGTAGGGTGGGTAA-TAMRA-3′) (SEQ ID NO:14) and duplex 26-mer (5′-FAM-TATAGCTATATTTTTTTATAGCTATA-TAMRA-3′) (SEQ ID NO: 15). Measurements were made in triplicate by using a LightCycler 480 System RT-PCR machine (Roche) and average values were reported. Fluorescence readings were made with excitation at 450-495 nm and detection at 515-545 nm, taken at intervals of 1.2° C./min in the range 25° C. to 95° C.

c-MYC = test: FRET melting assay, c-MYC; assay type: binding; settings: dual-labeled DNA 0.2 μM, DMZ analogues 1 μM, potassium cacodylate 60 mM pH 7.2
Method: as §3

c-kit2 = test: FRET melting assay, c-kit2; assay type: binding; settings: dual-labeled DNA 0.2 μM, DMZ analogues 1 μM, potassium cacodylate 60 mM pH 7.2
Method: as §3

k-RAS21R = test: FRET melting assay, k-RAS21R; assay type: binding; settings: dual-labeled DNA 0.2 μM, DMZ analogues 1 μM, potassium cacodylate 60 mM pH 7.2
Method: as §3

OVCAR-3 = test: WST-1 IC50 determination, OVCAR-3; assay type: cell-based, human; settings: 72 hours, WST-1; for IC50: read-out: Anticancer activity IC50 ± SD, OVCAR-3
Method: (§4) Cell lines and culturing. The following human cell lines were purchased from ATCC (ATCC, Manassas, Va.): prostate cancer cells (PC-3), triple negative breast cancer cells (MDA-MB-231), ovarian cancer cells (OVCAR-3), normal bone marrow (NBM) and normal fibroblast cells (MCR5A). MDA-MB-231 cells were grown at 37° C. with 5% CO2 atmosphere with DMEM (Life technologies, Carlsbad, Calif.) supplemented with heat-inactivated 10% (V/V) fetal bovine serum. OVCAR-3 and PC-3 cells were grown at 37° C. with 5% CO2 atmosphere with RPMI (Life technologies, Carlsbad, Calif.) supplemented with heat-inactivated 10% (V/V) fetal bovine serum. Cell lines were grown and maintained according to ATCC recommendations.
(§5) IC50 determination. Cell lines were seeded into 96-well plates the afternoon prior to treatment. Cell seeding number was determined by growing cells in log phase growth during drug treatment. Approximately 18 hours later, compounds were semi-serially diluted in dimethyl sulfoxide (DMSO) and then growth medium, and added to cells. Plates were incubated for 72 hours prior to addition of WST-1 (Promega, Madison Wis.). Plates were read after 4 additional hours of incubation at 37° C. using a Bio-Tek Synergy HT plate reader (Bio-Tek, Winooski, Vt.). Data was analyzed, graphed and IC50s generated using GraphPad Prism Software (Graphpad, La Jolla, Calif.).
(§6) IC50 determination: For the determination of IC50 for the azolamide class, the same protocol as described previously was followed.

PC-3 = test: WST-1 IC50 determination, PC-3; assay type: cell-based, human; settings: 72 hours, WST-1; for IC50: read-out: Anticancer activity IC50 ± SD, PC-3
Method: as §4, §5, §6

MDA-MB-231 = test: WST-1 IC50 determination, MDA-MB-231; assay type: cell-based, human; settings: 72 hours, WST-1; for IC50: read-out: Anticancer activity IC50 ± SD, MDA-MB-231
Method: as §4, §5, §6

duplex = test: FRET melting assay, duplex DNA; assay type: binding; settings: dual-labeled DNA 0.2 μM, DMZ analogues 1 μM, potassium cacodylate 60 mM pH 7.2
Method: as §3

c-MYC Pu27 = test: PCR stop assay, Pu27 template; assay type: biochemical
Method: (§7) PCR Stop Assay. This assay was performed by modifying a previously published protocol.
(§8) To the PCR reaction mixture (25 μL), 1×PCR buffer (New England Biolabs), 5 μM Pu27 and Pu27rev oligomers, various concentrations of ligands (DMZ, TMPyP4, DMZ1, DMZ9 and DMZ13) were added and incubated at 4° C. for 6 h. After that, 1 mM dNTPs, 5 units of Taq DNA polymerase (New England Biolabs) were added and PCR reactions were performed in a thermocycler, with the following conditions: 94° C. for 3 min, followed by 20 repeated cycles each having 94° C. for 30 s, 58° C. for 30 s, and 72° C. for 30 s. After PCR, amplified products were analyzed on 12% polyacrylamide gel with 1×TBE and SYBR Gold stained. This assay was also performed under the same conditions with Pu27-13,14 and Pu27rev.

Pu27-13,14 = test: PCR stop assay, mutated control template; assay type: biochemical
Method: as §7, §8

SMILES | change of c-kit1 imino proton NMR spectrum (c-kit1) | change of duplex DNA imino proton NMR spectrum (8 bp AT) | ΔTm F21T (F21T) | ΔTm c-MYC (c-MYC) | ΔTm c-kit2 (c-kit2) | ΔTm k-RAS21R (k-RAS21R) | Anticancer activity IC50 ± SD, OVCAR-3 (OVCAR-3) | Anticancer activity IC50 ± SD, PC-3 (PC-3) | Anticancer activity IC50 ± SD, MDA-MB-231 (MDA-MB-231) | ΔTm duplex (duplex) | IC50 (OVCAR-3) | IC50 (PC-3) | IC50 (MDA-MB-231) | polymerization/extension of oligomers Pu27 and Pu27rev (c-MYC Pu27; 100 μM compound) | PCR product with non-G-quadruplex template (Pu27-13,14; 100 μM compound) | IC50 (OVCAR-3; Homo sapiens, OVCAR-3) | polymerization/extension of oligomers Pu27 and Pu27rev (c-MYC Pu27; 25 μM compound) | PCR product with non-G-quadruplex template (Pu27-13,14; 25 μM compound)
N=C(N)c1ccc(NN=Nc2ccccc2)cc1 [DMZ1] | direct binding | only DMZ (but not Triazene-1) showed considerable changes | 4.20 ± 0.00 °C | 7.87 ± 0.53 °C | 6.40 ± 0.26 °C | 5.47 ± 0.93 °C | NE (NE means not effective. Cell viability was the same or greater than 75% of the DMSO control at 20 μM compound concentration.) | NE (NE means not effective. Cell viability was the same or greater than 75% of the DMSO control at 20 μM compound concentration.) | NE (NE means not effective. Cell viability was the same or greater than 75% of the DMSO control at 20 μM compound concentration.) |  |  |  |  |  |  |  |  | 
N=C(N)c1ccc(N=NNc2cccc(C#Cc3ccc(F)cc3)c2)cc1 [DMZ9] | changes in peak positions and shapes | no change was observed | 4.20 ± 0.00 °C | 8.22 ± 0.45 °C | 5.67 ± 0.26 °C | 6.58 ± 1.29 °C |  |  |  | NE (NE means not effective binding (ΔTm < 1° C.)) | 5 ± 0.1 µM | 5.3 ± 1.6 µM | 5.5 ± 0.1 µM | completely inhibited | amplified PCR product was observed |  |  | 
N=C(N)c1ccc(/N=N/Nc2ccccc2C#Cc2ccc(F)cc2)cc1 [DMZ13] | changes in peak positions and shapes | no change was observed | 4.20 ± 0.00 °C | 7.15 ± 0.00 °C | 5.12 ± 0.26 °C | 2.01 ± 0.00 °C |  |  |  | NE (NE means not effective binding (ΔTm < 1° C.)) | 9.5 ± 2.2 µM | 7.4 ± 0.2 µM | 6.2 ± 1 µM | completely inhibited | amplified PCR product was observed |  |  | 
N=C(N)c1ccc(/N=N/Nc2ccc(C(=N)N)cc2)cc1 [DMZ, Diminazene aceturate, reference compound] | direct binding | considerable changes in the imino region | 10.05 ± 0.52 °C | 12.97 ± 0.26 °C | 11.70 ± 0.26 °C | 18.3 °C and 18.27 ± 0.52 °C |  | NE (NE means not effective. Cell viability was the same or greater than 75% of the DMSO control at 20 μM compound concentration.) | NE (NE means not effective. Cell viability was the same or greater than 75% of the DMSO control at 20 μM compound concentration.) | 6.4 °C |  |  |  |  |  | > 25 µM | showed inhibition | amplified PCR product was observed

— patent US20190209548A1, “LINKED DIARYL COMPOUNDS WITH ANTICANCER PROPERTIES AND METHODS OF USING THE SAME” (University of Maryland, College Park, priority 2014, published 2019)
